In US20120316241A1, “REMEDY FOR CARTILAGE-RELATED DISEASES” (ONO PHARMACEUTICAL CO., LTD., priority 2003, published 2012):

Columns and labels:
[1] = system: rat femur head articular cartilage; assay: PCNA immunohistological staining of organ-cultured articular cartilage; conditions: 1 μM, after 7 days of organ culture
Procedure: (§1) The cartilage deficiency model was prepared from a femoral condyle articular cartilage collected from a rat of 5 weeks of age, by cutting the cartilage layer alone such that damage is not given to the subchondral bone. The femur was soaked in the DMEM/Ham's F12 medium (contains 5 μM indometacin) and cultured for 21 days in the presence (treated group) or absence (control group) of the selective EP agonist described in Example 2 (10 μM or 1 μM). Area of the newly formed cartilage tissue was measured using Image-Pro Plus software (mfd. by Planetron) and calculated as an area ratio with the untreated lateral joint face.
(§2) The formalin-fixed sections were prepared on the 0th day, 7th day, 14th day and 21st day starting from the commencement of tissue culturing described in Example 8. Each section was decalcified with EDTA (10% w/v) for 7 days and then sliced into a section of 4 μm in thickness. The hematoxylin-eosin staining and alcian blue staining were carried out by the aforementioned method.
Regarding the PCNA immuno histological staining, the prepared slide was treated with 3% hydrogen peroxide and then subjected to a blocking treatment using a blocking solution (mfd. by Dako Cytomation). […] After washing, the reaction with a substrate, 3,3′-diaminobenzidine tetrahydrochloride (mfd. by Dako Cytomation), was detected. […]

chondrocyte strain = assay: gene expression profile by cDNA microarray, reconfirmed by RT-PCR; assay type: cell-based, mouse; conditions: 1 μM, 72 hours, medium with 5 μM indometacin
Procedure: Culturing of each chondrocyte was started at a cell density of 3×10^5 cells/100 mm culture dish, and 2 days and 21 days thereafter, respective total RNA samples were prepared using Trizol Reagent (mfd. by Life Technologies) in accordance with the instructions attached thereto. The RT reaction was carried out in accordance with the instructions attached to RT-PCR kit (mfd. by Life Technologies) using 1 μg of the thus prepared total RNA. The PCR reaction was carried out in 25 μl of a reaction liquid (20 μmol sense primer, 20 μmol antisense primer, 25 mM MgCl2, 0.2 mM dNTP, 1 unit γTaq polymerase (mfd. by TOYOBO., LTD.)) containing 1 μl of the RT reaction liquid. The PCR reaction (in the reaction, starting reaction was carried out at 94° C. for 5 minutes, and then the following reaction (denaturation reaction at 94° C. for 1 minute, annealing reaction at 72° C. for 1 minute and elongation reaction at 72° C. for 7 minutes) was carried out 35 times) was carried out using Gene Amp 9700 (mfd. by PE Applied Biosystem). Sequences of the primers used in the above RT-PCR are shown in the following.
Gene expression profile of chondrocytes was analyzed by a custom-made cDNA microarray system. This system was prepared by spotting 78 species of bone- and cartilage-related mouse genes and 900 species of mouse genes (InteliGene CHIP ver. 1) (mfd. by Takara Bio INC.) on a glass slide.
A chondrocyte was cultured for 72 hours in DMEM/F12 medium (contains 5 μM indometacin) in the presence or absence of each of the selective EP agonists shown in Example 2 (1 μM), and respective total RNA samples were extracted. A fluorescent cDNA probe was synthesized using 20 μg of each of the total RNA samples as the template, and using 400 U of M-MLV reverse transcriptase and Cy3 or Cy5-dUTP (Amersham Biosciences).
Each cDNA probe dissolved in a reaction buffer (6×SSC/0.2% SDS, 5×Denhardt's solution, 0.1 mg/ml denatured salmon sperm DNA) was allowed to hybridize with the spots on the glass slide at 65° C. overnight. The slide was washed with a washing liquid (2×SSC/0.2% SDS) twice at 55° C. for 5 minutes and then once at 65° C. for 5 minutes, and finally washed with 0.05×SSC solution at room temperature for 1 minute. The hybridization signal was visualized by Affymetrix 418 Array Scanner (mfd. by Affymetrix), and analyzed by ImaGene software (mfd. by BioDiscovery). Regarding the expressed genes in which changes were confirmed, reconfirmation was carried out by the RT-PCR method.

MMA2 chondrocyte strain = assay: intracellular cAMP concentration (cAMP assay kit); assay type: cell-based, mouse; conditions: 12 hours with agonist
Procedure: Cartilage tissues of a femur and the shinbone collected from a p53 defective mouse of 4 weeks of age (Tukada, T., Oncogene, 1992, vol. 8, pp. 3313-3322) were cut into pieces, treated with 0.1% collagenase and then cultured (culture conditions; 5% CO2, 37° C., under humidification, hereinafter, this was carried out under the same conditions) using DMEM/Ham's F12 (1:1) medium (contains 10% fetal bovine serum (FBS) and antibiotics (to be referred to as DMEM/Ham's F12 medium hereinafter)). By carrying out dilution sub-culturing from the cell group under a 80 to 90% confluent state, a chondrocyte strain MMA2 recognized by an international deposition number FERM BP-10029 was isolated. […]
Culturing of each chondrocyte was started at a cell density of 1×10^4 cells/24 well culture dish, and 2 hours thereafter, each of the selective EP agonists shown in Example 2 was added thereto to continue the culturing for additional 12 hours. The intracellular cAMP concentration was measured using a cAMP assay kit (Cayman Chemical Company) and in accordance with the instructions attached to the kit, using, as a sample, lysed supernatant of the cell prepared by lysing the same with a cell lysis liquid (0.1 mM Tris/HCl buffer, pH 7.2).

[2] = system: femoral condyle articular cartilage; assay: cartilage deficiency model, femoral condyle articular cartilage organ culture; set-up: species or system rat
Procedure: as §1, §2

[3] = system: human primary-cultured chondrocyte; assay: cell growth activity, BrdU incorporation assay; assay type: cell-based; conditions: 1 μM overnight, then 8 hours with BrdU; normal cartilage and RA articular cartilage derived cells
Procedure: Human primary-cultured chondrocytes were isolated from knee articular cartilages of three patients who underwent above-knee amputation due to femur osteosarcoma. In addition, other human primary-cultured chondrocytes were obtained from rheumatic arthritis patients who underwent artificial hip joint replacement. Isolation operation of these cells was also carried out by the method described in the above.
The cell growth activity was measured by a BrdU incorporation assay using BrU labeling, detection kit (mfd. by Boehringer Mannheim GmbH).
Culturing of each chondrocyte was started at a cell density of 2×10^3 cells/96 well culture dish, and after adhesion of the cells, the selective EP agonist described in Example 2 (1 μM) was added thereto to start the culturing at 37° C. overnight. Subsequently, the culturing was continued for 8 hours together with BrdU (final concentration 110 μM), and the labeled nucleus was detected by the method of the instructions attached to the kit.

**Q.** Which results are given for CCCCC[C@@H](/C=C/[C@H]1[C@H](OC)CC(=O)[C@@H]1C/C=C\CCCC(=O)O)OC [EP3 agonist, 11α,15α-dimethoxy-9-oxoprosta-5Z,13E-dienoic acid]?
**A.** PCNA staining affinity [1]: distinctively increased; expression of fibronectin, integrin, cyclin D1, MAZ, AP2α and 14-3-3γ genes (chondrocyte strain): stimulated; expression of osteopontin and MGP genes (chondrocyte strain): reduced

**Q.** For C=CCC1(C(O)C/C=C/[C@@H]2[C@@H](C/C=C\CCCC(=O)O)[C@H](Cl)C[C@H]2O)CCC1 (stereo partly drawn) [EP2 agonist, (5Z,9β,11α,13E)-17,17-propano-11,16-dihydroxy-9-chloroprostar-5,13,19-trienoic acid], which “intracellular cAMP” value (MMA2 chondrocyte strain) is on record?
**A.** increased concentration-dependently

**Q.** And the “ratio of the regenerated tissue (area ratio with the untreated lateral joint face)” value ([2]; 1 μM or 10 μM, cultured for 21 days)?
**A.** increased periodically and concentration-dependently

**Q.** What about the “tissue regeneration image (hematoxylin-eosin, alcian blue staining)” value ([2]; treated group against control group, 21 days) of the same compound?
**A.** a regeneration image having a staining affinity of similar to that of a remaining existing cartilage (right side) was observed

**Q.** What about the “DNA synthesis (BrdU incorporation)” value [3] of the same compound?
**A.** DNA synthesis accelerating effect

**Q.** What about the PCNA staining affinity [1] of the same compound?
**A.** distinctively increased

**Q.** And the “expression of fibronectin, integrin, cyclin D1, MAZ, AP2α and 14-3-3γ genes” value (chondrocyte strain)?
**A.** stimulated

**Q.** What about the “expression of osteopontin and MGP genes” value (chondrocyte strain) of the same compound?
**A.** reduced
